Data on 4 molecules can be found in patent US20240059961A1, “BIOCOMPATIBLE OXYGEN-SENSITIVE MATERIALS” (Promega Corporation, priority 2022, published 2024).

Common to all, as to type: cell-based
One assay has as its system HEP-G2. As to the kind of experiment: Oxygen consumption of HEP-G2 cells on the oxygen sensing film. Conditions: HEP-G2, drug treatment.
A further assay has as its system HCT-116 cells. As to the kind of experiment: Oxygen consumption of HCT-116 cells on the oxygen sensing film. On the procedure: To determine the minimum number of cells necessary to observe a signal change, HCT-116 cells were titrated from 15k-120k cells/well (95k-750k cells/cm^2). The following day, the culture medium of the cells was replaced with fresh DMEM (high glucose, without phenol red), and the ratiometric fluorescence of 650/490 nm was recorded over time in a plate reader with temperature control at 37° C. […] Further experiments using drug treatments were carried out at 250k cells/cm^2.
HCT-116 cells were seeded onto the oxygen sensing surface functionalized with 300 ug mL-1 Collagen I at 40,000 cells/well of a half-area 96-well plate (250,000 cells/cm^2). The following day, the culture medium was replaced with medium containing 2-[[4-(trifluoromethoxy)phenyl]hydrazinylidene]propanedinitrile (FCCP), an uncoupler of oxidative phosphorylation in mitochondria that increases oxygen consumption. […] HCT-116 cells were additionally treated with rotenone at 2 uM, which is an inhibitor of oxidative phosphorylation.

In another assay the test system is PC-3. Briefly: Oxygen consumption of PC-3 cells on the oxygen sensing film. Conditions: PC-3, drug treatment.
The test system of a further assay is C2C12 cells. As to the kind of experiment: Cell attachment / cellular coverage on protein-coated siloxane surface. To be noted: for coating concentration sufficient to enhance the adhesion of cells to the surface: C2C12 cells on coated siloxane surface; for cellular coverage on the substrate: C2C12 seeded at 60,000 cells/cm^2, assessed the following day, covalent or passive coating, 100-3,000 ug mL-1. On the procedure: After silane film fabrication, the film surface was further modified with a biomacromolecule coating to enhance cell attachment. Biomacromolecules assessed for cell attachment include collagen type I (rat tail, acid extracted) and laminin. […] Passive coating of the substrate is achieved by incubating a solution of the biomacromolecule (e.g., 300 ug mL-1 collagen type I in 17 mM acetic acid) on the film for either 1 hour at room temperature or overnight at 4° C. Excess biomacromolecule was removed by washing the substrate with phosphate buffered saline (PBS).
The surface was coated with Collagen I and Laminin, either covalently or passively. Covalent conjugation is achieved with sulfo-SANPAH conjugation method, and passive coating is achieved by incubating the siloxane surface in the presence of the protein for 1 hour at room temperature. The protein was titrated from 100 ug mL-1-3,000 ug mL-1. C2C12 cells were seeded on the coated surface at 60,000 cells/cm^2, and cellular coverage on the substrate was assessed the following day.

With `N#CC(C#N)=NNc1ccc(OC(F)(F)F)cc1` [FCCP, 2-[[4-(trifluoromethoxy)phenyl]hydrazinylidene]propanedinitrile], the oxygen consumption entry in the assay with HEP-G2 was “increased oxygen consumption”; in the assay on HCT-116 cells (HCT-116, 40,000 cells/well, FCCP treatment, concentration up to 4 uM), “oxygen consumption increased with increasing FCCP concentration up to 4 uM”; in the assay with PC-3, “increased oxygen consumption”.
Turning to `C=C(C)[C@H]1Cc2c(ccc3c2O[C@@H]2COc4cc(OC)c(OC)cc4[C@@H]2C3=O)O1` [rotenone], the oxygen consumption entry is “decreased oxygen consumption” in the assay with HEP-G2; “inhibited oxygen consumption” in the assay with HCT-116 cells (HCT-116, rotenone at 2 uM); “decreased oxygen consumption” in the assay on PC-3.
For the molecule “Collagen I: collagen type I (rat tail, acid extracted), biomacromolecule coating to enhance cell attachment”, in the assay on C2C12 cells, the “coating concentration sufficient to enhance the adhesion of cells to the surface” value worked out at 300 µg/mL and the “cellular coverage on the substrate” value is listed as “enhanced cellular coverage”. Also, the cell attachment result in the assay with C2C12 cells (passive coating of the film) is given as “sufficient for cell attachment”.
Take Laminin: in the assay with C2C12 cells, the “coating concentration sufficient to enhance the adhesion of cells to the surface” value is 300 µg/mL and the “cellular coverage on the substrate” value is recorded as “enhanced cellular coverage”.
